Publication PMC11172311, “Structural and Interactional Analysis of the Flavonoid Pathway Proteins: Chalcone Synthase, Chalcone Isomerase and Chalcone Isomerase-like Protein” (International Journal of Molecular Sciences, 2024)

Columns and labels:
[1] = target: T1, PvCHS (chalcone synthase) (Panicum virgatum, UniProt A0A8T0PQ54); experiment: X-ray crystal structure (co-crystallization); type: binding
T1 construct: gene PVAP13_8KG261900; full-length with N-terminal His6-tag; residues 8 to 395 of 402 resolved
T1 sequence (A0A8T0PQ54 1-402): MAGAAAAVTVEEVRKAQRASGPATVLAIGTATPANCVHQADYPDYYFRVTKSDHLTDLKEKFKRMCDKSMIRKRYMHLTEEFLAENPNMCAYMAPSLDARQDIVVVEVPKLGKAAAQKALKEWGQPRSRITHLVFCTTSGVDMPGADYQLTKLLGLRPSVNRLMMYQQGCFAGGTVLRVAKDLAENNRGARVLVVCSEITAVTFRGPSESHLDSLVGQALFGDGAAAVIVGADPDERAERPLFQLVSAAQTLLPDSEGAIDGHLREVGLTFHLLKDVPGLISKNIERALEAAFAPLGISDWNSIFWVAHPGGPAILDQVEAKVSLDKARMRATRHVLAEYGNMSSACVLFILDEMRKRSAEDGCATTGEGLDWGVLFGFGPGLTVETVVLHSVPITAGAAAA

[2] = target: T2, PvCHI (chalcone isomerase) (Panicum virgatum, UniProt A0A8T0N7A2); experiment: steady-state kinetics at […] nm; substrate inhibition (Km […], KI […]); type: biochemical
T2 construct: gene PVAP13_9KG390224; recombinant, N-terminal 6×-His tag
T2 sequence (A0A8T0N7A2 1-235): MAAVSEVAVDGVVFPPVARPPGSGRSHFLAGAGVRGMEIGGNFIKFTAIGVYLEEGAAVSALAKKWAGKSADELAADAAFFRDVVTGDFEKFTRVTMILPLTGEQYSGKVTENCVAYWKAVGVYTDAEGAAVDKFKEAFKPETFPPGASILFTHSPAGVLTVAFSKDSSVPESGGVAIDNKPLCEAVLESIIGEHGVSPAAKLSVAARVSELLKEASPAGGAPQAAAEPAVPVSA

[3] = target: T2, PvCHI (chalcone isomerase); experiment: steady-state kinetics with naringenin chalcone as substrate, […] liquiritigenin; type: biochemical
[4] = target: T3, SbCHI (chalcone isomerase, Bmr30) (Sorghum bicolor, UniProt C5WV22); experiment: X-ray crystal structure (binary complex); type: binding
T3 construct: gene SORBI_3001G035600; recombinant SbCHI
T3 sequence (C5WV22 1-231): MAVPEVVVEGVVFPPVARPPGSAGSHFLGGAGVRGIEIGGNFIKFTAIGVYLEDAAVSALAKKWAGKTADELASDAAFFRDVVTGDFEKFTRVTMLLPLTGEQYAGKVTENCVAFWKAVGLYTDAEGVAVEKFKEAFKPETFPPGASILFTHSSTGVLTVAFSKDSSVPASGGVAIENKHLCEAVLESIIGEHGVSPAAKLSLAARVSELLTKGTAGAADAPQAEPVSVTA

[5] = target: T1, PvCHS (chalcone synthase); experiment: X-ray crystal structure (co-crystallization, ternary complex with CoA); type: binding

SMILES: CC(C)(COP(=O)(O)OP(=O)(O)OC[C@H]1O[C@@H](n2cnc3c(N)ncnc32)[C@H](O)[C@@H]1OP(=O)(O)O)[C@@H](O)C(=O)NCCC(=O)NCCS [CoA]
- X-ray crystal structure (co-crystallization) [1]: The electron density corresponding to an extended CoA molecule (Figure 2B) along a continuous tunnel

SMILES: O=C(/C=C/c1ccc(O)cc1)c1ccc(O)cc1O [isoliquiritigenin]
- Ki [2]: 11.2 µM

SMILES: O=C1C[C@@H](c2ccc(O)cc2)Oc2cc(O)ccc21 [liquiritigenin]
- Ki [3]: 0.285 µM
- X-ray crystal structure (binary complex) [4]: the electron density corresponding to liquiritigenin that had been added to the crystallization buffer was clearly identified

SMILES: O=C1C[C@@H](c2ccc(O)cc2)Oc2cc(O)cc(O)c21 [naringenin]
- X-ray crystal structure (co-crystallization, ternary complex with CoA) [5]: one naringenin molecule was visible in the concave pocket established at the interface between two PvCHS dimers
